The record followed here is patent US20230174571A1, “METHOD OF TREATING SHIP1-MEDIATED DISEASES USING PELOROL DERIVATIVES” (Zebrapeutics Inc., priority 2020, published 2023).

One test deals with CLP-induced sepsis. Nature of the test: Caecum Ligation and Puncture (CLP) sepsis model. Format: in vivo, mouse. Particulars: CLP mice, oral gavage; vs. 20% in CLP group without drug. An excerpt:
The mouse CLP model is well-accepted clinically relevant method for anti-sepsis drug testing. The surgical operation included opening of the mouse abdomen, ligation of the cecum and puncture of the ligated cecum with a needle. Rittirsch, 2009 Method was followed to induce Mid to High grade experimental sepsis to achieve 70-100% […] rate over 7 days after CLP operation.
Methods: Five groups (n=10 each) of mice were designed with (1) a blank control, (2) Sham control (abdomen operation was performed but without cecal ligation/puncture), (3) CLP group (operation with cecal ligation/puncture), (4) CLP+compound I-1 (MN100) (3 mg/kg/d), and (5) CLP+compound I-1 (MN100) (10 mg/kg/d). ZPR-MN100 (compound I-1) was given 3 days before CLP operation and continued to 7 days after CLP. ZPR-MN100 was delivered via oral gavage twice a day. […] Mouse condition and survival were recorded every day. Seven days after CLP, the experiment was terminated and survival curves were drawn using GraphPad Prism.

The target in another test is T1, PAC2-K681A (Mus musculus, UniProt Q9ES52, K681A).
T1 construct: PAC1 and PAC2 consists of phosphatase and C2 domain (residues aa 402-861 and aa 402-857 respectively); made in house; host or cells: E. coli BL21 co-transformed with pBirAcm
T1 sequence (Q9ES52 402-857 K681A): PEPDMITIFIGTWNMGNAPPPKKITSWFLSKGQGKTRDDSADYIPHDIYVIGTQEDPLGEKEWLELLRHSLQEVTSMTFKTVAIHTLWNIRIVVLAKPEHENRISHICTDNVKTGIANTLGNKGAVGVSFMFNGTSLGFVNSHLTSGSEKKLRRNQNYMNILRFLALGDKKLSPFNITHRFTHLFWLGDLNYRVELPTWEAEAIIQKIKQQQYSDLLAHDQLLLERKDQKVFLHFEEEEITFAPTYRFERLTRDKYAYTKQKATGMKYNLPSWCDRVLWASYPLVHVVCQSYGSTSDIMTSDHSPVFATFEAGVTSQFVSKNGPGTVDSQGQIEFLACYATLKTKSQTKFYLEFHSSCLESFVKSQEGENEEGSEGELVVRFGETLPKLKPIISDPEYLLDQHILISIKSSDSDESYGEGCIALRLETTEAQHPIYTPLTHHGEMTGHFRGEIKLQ
Put plainly: Biolayer interferometry, PAC2-K681A. Format: binding. Particulars: 20 μM analyte; K681A vs wild-type PAC2. The protocol:
Expression of PAC2-Avi tag for Biolayer interferometry. A sequence corresponding to Avi-tag ([…]) was added to the c-terminal end of the PAC2 in LIC-HMT-PAC2 expressing vector via standard restriction digestion and ligation. The LIC-HMT-PAC2-Avi expressing vector was then co-transformed into E. coli BL21 cells with pBirAcm expression vector in 1:1 molar ratio. Overnight culture was inoculated with a 250-fold dilution to start the actual culture. The cells were grown at 37° C. in LB medium (supplemented with 50 μg/mL of kanamycin and 10 μg/mL of chloramphenicol) with shaking speed of 225 rpm. When OD600 reached about 0.6, 5 mM of biotin in bicine buffer pH 8.3 was added to the culture to have final concentration of 125 μM of biotin. The culture was then cooled down to room temperature before the addition of 0.4 mM isopropyl-B-D-1-thiogalactopyranoside (IPTG) to induce the expression of the recombinant protein with Avi-tag. The rest of the method is identical as written in “Expression of PAC2 for crystallography”.
Biolayer interferometry. […] The association was measured for 600 s at an analyte concentration of 20 μM followed by dissociation for 300 s in the same buffer as the baseline. The raw data was analyzed using the Octet Red Data Analysis software (ver. 8.2). […]

Test [1] relates to LPS-stimulated TNFα production in BMDM. Nature of the test: Continuous flow culture of BMDM, TNFα kinetics. Format: cell-based, mouse. The protocol:
Production of bone marrow-derived macrophages. Bone marrow-derived macrophages (BMDMs) were generated by first collecting femurs and tibias from mice, and then flushing out the bone marrow through a 26-G needle. Extracted cells were plated, in Mac media supplemented with 5 ng/ml each of CSF-1 and GM-CSF (Stem Cell Technologies, Vancouver, BC), on a 10-cm tissue culture plate for 2 hours at 37° C. Non-adherent cells were collected and replated at 9×10^6 cells per 10-cm tissue culture plate. Cells were then cultured in the presence of CSF-1 and GM-CSF. Differentiated BMDMs were used after 7 to 8 days. All cells were maintained in a 37° C., 5% CO2, 95% humidity incubator.
Continuous Flow Cultures. The continuous flow apparatus facilitates constant stimulation and removal of cell supernatants to determine kinetic profiles of cytokine production over time. BMDMs were seeded at 3×10^6 cells per well in a 24-well tissue culture plate that had been coated with poly-L-lysine (Thermo Fisher Scientific, Nepean, ON) and rinsed with PBS. After overnight incubation, culture media was removed and Leibovitz's L-15 (L-15) media (Invitrogen, Burlington, ON) supplemented with 3% FCS, 10 μM β-mercaptoethanol and 150 μM monothioglycolate was added. Cells were allowed to equilibrate in L-15 media for 1 hour before being placed in the continuous flow apparatus. Stimulation solution was made in the same media equilibrated at 37° C., and was passed through a modified inlet fitted to the well by a syringe pump (New Era Syringe Pumps Inc., Farmingdale, N.Y.). A flow rate of 150 μl per minute was used. At the same time, cell supernatants were removed from the well at the same flow rate, and fractions were collected at 5-minute intervals over the course of 3 hours. These fractions were analyzed for secreted TNFα levels by ELISA.

As to `Cc1cc(O)cc2c1C1(C)CCC3C(C)(C)CCCC3(C)C1C2` (centres unmarked) [Compound I-1], the 7-day survival rate in the test on CLP-induced sepsis worked out at 50%.

In the case of `CC12CCC3C(C)(C)C(N)CCC3(C)C1Cc1cc(O)cc(O)c12` (centres unmarked) [Compound I-2], the “binding to PAC2 with K681A substitution (BLI)” value on PAC2-K681A was “impairs”.

As to “IL10: anti-inflammatory cytokine interleukin-10”, the TNFα levels entry in test [1] (LPS-stimulated SHIP1+/+ and STAT3+/+ BMDM) is reported as “reduces”. The “inhibition of 3-hour TNFα peak” value in test [1] (LPS-stimulated STAT3−/− and SHIP1−/− (KO) BMDM) is “partly impaired”. The “inhibition of 1-hour TNFα peak” value in test [1] (LPS-stimulated STAT3−/− and SHIP1−/− BMDM) is given as “completely impaired”.
